According to PubChem BioAssay AID602264 (The Scripps Research Institute Molecular Screening Center, 2012):
Calls of active or inactive are those of the source. The rule behind the calls is not given here.

Target: Mu-type opioid receptor (Homo sapiens) + Delta-type opioid receptor (Homo sapiens) (UniProt P35372+P41143)
Assay: OPRM1-OPRD1 heterodimer agonist potency – cell-based, luminescence, counter-screen for MC4R biased agonist project, dose response (AID 602264)
Conditions: cell-based OPRM1-OPRD1 heterodimerization

Chain of Mu-type opioid receptor (Homo sapiens) + Delta-type opioid receptor (Homo sapiens) (P35372 whole entry, looked up): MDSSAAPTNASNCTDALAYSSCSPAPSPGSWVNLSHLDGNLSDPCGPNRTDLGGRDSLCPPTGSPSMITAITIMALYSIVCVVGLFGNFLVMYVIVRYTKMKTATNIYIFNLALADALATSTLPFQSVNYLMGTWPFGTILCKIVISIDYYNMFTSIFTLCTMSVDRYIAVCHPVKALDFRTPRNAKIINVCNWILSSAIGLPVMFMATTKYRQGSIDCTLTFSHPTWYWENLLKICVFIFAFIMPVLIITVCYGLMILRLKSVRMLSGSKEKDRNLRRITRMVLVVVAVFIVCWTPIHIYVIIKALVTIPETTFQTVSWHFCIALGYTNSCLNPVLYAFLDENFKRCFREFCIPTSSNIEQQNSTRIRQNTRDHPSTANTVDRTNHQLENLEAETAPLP
Chain of Mu-type opioid receptor (Homo sapiens) + Delta-type opioid receptor (Homo sapiens) (P41143 whole entry, looked up): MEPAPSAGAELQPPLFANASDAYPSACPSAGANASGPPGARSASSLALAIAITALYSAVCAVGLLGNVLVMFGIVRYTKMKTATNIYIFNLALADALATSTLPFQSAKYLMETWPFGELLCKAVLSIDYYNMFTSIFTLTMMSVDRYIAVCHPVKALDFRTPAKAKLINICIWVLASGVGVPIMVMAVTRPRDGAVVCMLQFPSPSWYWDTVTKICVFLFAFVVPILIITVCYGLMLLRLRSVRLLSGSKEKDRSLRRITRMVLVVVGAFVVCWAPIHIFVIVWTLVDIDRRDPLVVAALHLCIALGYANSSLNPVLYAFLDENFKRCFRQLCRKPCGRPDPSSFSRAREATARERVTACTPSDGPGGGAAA

SMILES	EC50
CCC(C)c1ccc(NC(=S)NC2CCN(Cc3ccccc3)CC2)cc1 (stereo not given)	> 64.6 µM (inactive)
CC(C)c1ccc(NS(=O)(=O)c2ccc(-n3cccn3)cc2)cc1	> 92.5 µM (inactive)
NC(N)=Nc1nc(-c2ccccc2)c2cc(Cl)ccc2n1	> 10.3 µM (inactive)
O=C(NC(c1ccccc1)c1ccsc1)C1CCN(CCOc2ccc(Cl)cc2Cl)CC1 (stereo not given)	inactive
NC(c1ccccc1)c1csc(NC(=O)Nc2ccccc2Oc2ccccc2)n1 (stereo not given)	> 92.5 µM (inactive)
NC(Cc1ccc(C(F)(F)F)cc1)c1csc(NC(=O)Nc2ccccc2Cl)n1 (stereo not given)	> 64.6 µM (inactive)
NC(c1csc(NC(=O)Nc2cccc(Cl)c2)n1)C1CCCCC1 (stereo not given)	> 92.5 µM (inactive)
COc1ccc(NC(=O)Nc2nc(C(N)Cc3ccc(C(F)(F)F)cc3)cs2)cc1 (stereo not given)	> 64.6 µM (inactive)
N#C/C(=C\c1cn(CCOc2ccccc2F)c2ccccc12)C(=O)NCc1cccs1	> 92.4 µM (inactive)
CC(=O)Nc1cc(-c2ccc(C(=O)NC3CC3)cc2)cn2c(-c3cccc(C(F)(F)F)c3)cnc12	> 64.6 µM (inactive)
COc1cc(NS(=O)(=O)c2ccc(NC(=S)NC(=O)c3sc4ccccc4c3Cl)cc2)ncn1	> 92.4 µM (inactive)
Cc1ccc2sc(N(CCCN(C)C)C(=O)CN3C(=O)c4ccccc4C3=O)nc2c1C	> 64.6 µM (inactive)
COc1cccc2sc(N(CCCN(C)C)C(=O)C(c3ccccc3)c3ccccc3)nc12	> 64.6 µM (inactive)
Cc1ccc2nc(Nc3ccc4[nH]c(=O)[nH]c4c3)c(-n3nc(C)cc3C)nc2c1	> 64.6 µM (inactive)
COc1cccc(-c2cnc3c(NC=O)cc(-c4ccoc4)cn23)c1	> 64.6 µM (inactive)
CCc1ccc(C2CC(c3ccc(F)cc3)Nc3nc(N)nn32)cc1 (stereo not given)	> 92.5 µM (inactive)
COc1ccc(COc2ccsc2C(=O)Nc2ccc(Cl)c(Cl)c2)cc1	> 64.6 µM (inactive)
COc1ccc2[nH]c3c(C)c4ccncc4c(C)c3c2c1	> 64.7 µM (inactive)
Cc1c(CCOC(=O)CC23CC4CC(CC(C)(C4)C2)C3)sc[n+]1CC(=O)c1ccccc1	> 92.5 µM (inactive)
CC(C)CC(N)c1csc(Nc2ccc(C(F)(F)F)cn2)n1 (stereo not given)	> 92.5 µM (inactive)
Cc1ccc2sc(N(CCCN(C)C)C(=O)c3ccc(Br)s3)nc2c1C	> 64.6 µM (inactive)
COc1ccc(-c2cc(NC(C)=O)c3ncc(-c4ccc(F)cc4)n3c2)cc1OC	> 64.6 µM (inactive)
COc1cc(NC(=O)COc2ccccc2[N+](=O)[O-])ccc1NC(=O)c1cccs1	> 92.5 µM (inactive)

SMILES	EC50
Cc1ccc(NC(=S)NC(=O)c2ccc(-c3ccc(Cl)cc3)o2)c(O)c1	> 64.6 µM (inactive)
OC(CNCCc1ccc(C(F)(F)F)cc1)COc1cccc2ccccc12 (stereo not given)	> 92.5 µM (inactive)
CCN1CCC(O)(/C=C/c2ccc(C(C)C)cc2)C(C(=O)/C=C/c2ccc(C(C)C)cc2)C1 (stereo not given)	> 64.6 µM (inactive)
O=C(N/N=C/c1c[nH]c2ccccc12)C1CC1(c1ccccc1)c1ccccc1 (stereo not given)	> 92.5 µM (inactive)
CC(=O)Nc1cc(-c2cccc(F)c2)cn2c(-c3ccc(F)c(Cl)c3)cnc12	> 64.6 µM (inactive)
CCOc1ccc(Cn2c3ccc(OC)cc3c3nc4ccccc4nc32)cc1OC	> 64.6 µM (inactive)
CC(=O)Nc1cc(-c2ccccc2)cn2c(-c3ccc(F)c(Cl)c3)cnc12	> 92.5 µM (inactive)
COc1ccc(CNCCc2ccc(Cl)cc2)cc1OCc1ccccc1	> 92.5 µM (inactive)
O=C(NC(c1ccccc1)c1ccc2ccccc2n1)C1CCN(CCOc2ccc(Cl)cc2Cl)CC1 (stereo not given)	inactive
COc1ccc(-c2sc3ccccc3c2-c2ccc(OCCN(C)C)cc2)cc1	> 92.5 µM (inactive)
Cc1ccccc1-c1nc(-c2ccc(NC(=O)c3ccc(Br)o3)cc2)no1	> 92.5 µM (inactive)
Cc1ccc(NC(=O)c2ncn(CCCN3CCN(Cc4cccc5ccccc45)CC3)n2)cc1C	> 92.5 µM (inactive)
Cc1ccc(CN2CCC(c3cc(-c4ccc(Cl)cc4)n[nH]3)CC2)cc1	> 92.5 µM (inactive)
CC(=O)Nc1cc(-c2ccccc2)cn2c(-c3ccc(F)cc3)cnc12	> 64.6 µM (inactive)
Cc1cc(C)nc(Nc2nc(C(N)Cc3ccc(Cl)cc3)cs2)n1 (stereo not given)	> 92.5 µM (inactive)
COc1ccc(/C=N/NC(=O)c2ccc(COc3ccccc3Cl)o2)c(OC)c1C	> 64.6 µM (inactive)
COc1ccccc1-c1cc(NC(C)=O)c2ncc(-c3ccccc3)n2c1	> 92.4 µM (inactive)
CC(=O)Nc1cc(-c2cccc(C(=O)N(C)C)c2)cn2c(-c3ccc(F)c(Cl)c3)cnc12	> 64.6 µM (inactive)
COc1cc(O)c(CC=C(C)C)c(O)c1C(=O)CCc1ccc(O)cc1	> 64.6 µM (inactive)
CC(=O)Nc1cc(-c2ccc(C(=O)N3CCOCC3)cc2)cn2c(-c3ccccc3)cnc12	> 92.5 µM (inactive)
O=C(COc1ccc2c(c1)OCO2)Nc1ccc2c(c1)oc1ccccc12	> 92.5 µM (inactive)
CCN1CCN(Cc2ccc(NC(=O)c3cc(NC(=O)c4cncc(-c5ccc(C#N)cc5)c4)cc(OC)c3)cc2C(F)(F)F)CC1	> 64.6 µM (inactive)
CC(=O)Nc1cc(-c2ccc(S(C)(=O)=O)cc2)cn2c(-c3ccc(F)c(Cl)c3)cnc12	> 64.6 µM (inactive)

SMILES	EC50
CCN1/C(=C/c2ccc3cc(C)ccc3[n+]2CC)Sc2cc(C)c(C)cc21	> 10.3 µM (inactive)
CC(=O)c1cccc(-c2cnc3c(NC=O)cc(-c4ccc(N(C)C)cc4)cn23)c1	> 64.6 µM (inactive)
CCc1ccc(OCCNc2cc(N3CCNC(C)C3)ccc2[N+](=O)[O-])cc1 (stereo not given)	> 92.5 µM (inactive)
NC(CCc1ccccc1)c1csc(Nc2ccc(C(=O)c3ccccc3)cc2)n1 (stereo not given)	> 92.5 µM (inactive)
COc1cccc(-c2sc3ccccc3c2-c2ccc(OCCN(C)C)cc2)c1	> 64.6 µM (inactive)
COc1ccccc1-c1cc(NC(C)=O)c2ncc(-c3cccc(C(F)(F)F)c3)n2c1	> 92.5 µM (inactive)
Cc1ccc(C(=O)Nc2nc(C(N)Cc3ccc(C(F)(F)F)cc3)cs2)cc1 (stereo not given)	> 64.6 µM (inactive)
COc1cccc(-c2cnc3c(NC(C)=O)cc(-c4ccsc4)cn23)c1	> 92.5 µM (inactive)
Cc1ccc(C(=O)Cn2c(C(=O)/C=C/c3ccccc3)nc3ccccc32)cc1	> 64.6 µM (inactive)
O=C1c2cccc3cccc(c23)C(=O)N1CC1CCN(CC(O)COc2ccc3ccccc3c2)CC1 (stereo not given)	> 10.3 µM (inactive)
O=C1OC(c2ccccc2)(c2cc(Br)ccc2O)c2ccccc21 (stereo not given)	inactive
COc1ccc(-c2cc(NC=O)c3ncc(-c4cccc(C(F)(F)F)c4)n3c2)cc1OC	> 64.6 µM (inactive)
COc1ccc(-c2oc3ccc(-c4ccc5c(c4)OCO5)cc3c2C#CC2(O)CCCCC2)cc1	> 64.6 µM (inactive)
Cc1cccc(NC(=S)NC(=O)C(c2ccccc2)c2ccccc2)n1	> 92.5 µM (inactive)
COc1ccc(C(NC(=O)C2CCN(CCOc3ccc(Cl)cc3Cl)CC2)c2cccs2)cc1 (stereo not given)	inactive
Cc1nc(NC(=O)c2cccc(-c3cc4ccccc4oc3=O)c2)ccc1Br	> 64.6 µM (inactive)
O=C(Nc1cccc(NC(=S)NC(=O)c2cccs2)c1)c1ccccc1	> 92.5 µM (inactive)
COc1ccc(-n2nc(C(=O)NCC(=O)Nc3ccccn3)c3ccccc3c2=O)cc1Cl	> 64.6 µM (inactive)
COc1ccccc1-c1cc(NC=O)c2ncc(-c3ccc(F)cc3)n2c1	> 92.4 µM (inactive)
CCOc1ccc(Cn2c3ccc(OC)cc3c3nc4ccccc4nc32)cc1	> 64.6 µM (inactive)
Cc1ccc(O)c(C(=O)/C=C/c2ccc3c(c2)OCCCO3)c1	> 64.6 µM (inactive)
CC(=O)Nc1cc(-c2ccccc2F)cn2c(-c3cccc(C(F)(F)F)c3)cnc12	> 92.5 µM (inactive)
CN(C)CCCNC(=O)c1ccc(-c2nc(-c3ccc(Cl)cc3)cs2)cc1	> 64.6 µM (inactive)

SMILES	EC50
CCCCCCCNC(=O)C1(CC2CC(c3ccc(Cl)cc3)=NO2)CCNCC1 (stereo not given)	> 64.6 µM (inactive)
CCCCCCCCNS(=O)(=O)CCNCCc1ccccc1	> 92.4 µM (inactive)
O=C(Nc1nc2ccc(SC(F)F)cc2s1)c1ccc(NS(=O)(=O)c2ccc(F)c(F)c2)cc1	> 64.6 µM (inactive)
OC(CNCCc1ccc(C(F)(F)F)cc1)COC(c1ccccc1)c1ccccc1 (stereo not given)	> 64.6 µM (inactive)
COc1ccc(CNC(=O)Nc2nc(C(N)Cc3ccc(C(F)(F)F)cc3)cs2)cc1 (stereo not given)	> 64.6 µM (inactive)
c1ccc(-c2sc3ccccc3c2-c2ccc(OCCN3CCCC3)cc2)cc1	> 92.5 µM (inactive)
Cc1ccc(C(=O)c2coc3c2C(=O)C(=O)c2ccccc2-3)cc1	> 64.6 µM (inactive)
COc1ccccc1-c1cc(NC(C)=O)c2ncc(-c3cccc(C(C)=O)c3)n2c1	> 64.6 µM (inactive)
CC12CCC3C(CC=C4CC(O)CCC43C)C1C/C(=C\c1ccccc1F)C2=O (stereo not given)	inactive
Cc1nnnn1/C(=C\c1ccccc1)C(=O)OCC(=O)Nc1ccc(Cl)cc1F	> 92.5 µM (inactive)
Cc1ccc2[nH]c(=O)c3cc(C(=O)N(CCCOC(C)C)Cc4ccco4)sc3c2c1	> 92.5 µM (inactive)
CCCCCCOc1ccc(/C(C)=N/NC2=NCCN2)cc1	> 92.4 µM (inactive)
Cc1cc(C)c2sc(N(CCCN(C)C)C(=O)COc3ccc(Cl)cc3)nc2c1	> 92.5 µM (inactive)
Cc1ccccc1NC(=O)c1ccc(COc2ccc3c(C)cc(=O)oc3c2)cc1	> 64.6 µM (inactive)
COc1cccc(/C=C2/SC(=S)N(CCCC(=O)Nc3ccc(O)cc3)C2=O)c1	> 92.5 µM (inactive)
CC(=O)Nc1cc(-c2cccnc2)cn2c(-c3cccc(C(F)(F)F)c3)cnc12	> 92.5 µM (inactive)
Cc1ccc(C(=O)NCCNc2nc3cc(C)c(C)cc3cc2C)cc1	> 64.6 µM (inactive)
Cc1cc(C)nc(Nc2nc(C(N)Cc3ccc(C(F)(F)F)cc3)cs2)n1 (stereo not given)	> 92.5 µM (inactive)
CCSc1nnc(NC(=O)c2csc3c2CCCC3)s1	> 92.5 µM (inactive)
CN(C)CCCN(C(=O)c1cc2cc([N+](=O)[O-])ccc2s1)c1nc2cc3c(cc2s1)OCCO3	> 92.5 µM (inactive)
Clc1ccccc1/C=N/NC1=Nc2cccc3cccc1c23	> 64.6 µM (inactive)
